Measurements as given in US10654834B2 (Venenum Biodesign, LLC, priority 2016, dated 2020).

Columns and labels:
[1] = target: T1, human TGR5 receptor (Homo sapiens, UniProt Q8TDU6); assay: Human TGR5 cAMP production assay (hTGR5-CHO cells, DiscoveRx cAMP XS+ kit); assay type: cell-based; settings: luminescent cAMP assay, read-out: Human TGR5 Lum. cAMP Activity (EC50)
T1 construct: host or cells: CHO-K1 (hTGR5-CHO)
T1 sequence (Q8TDU6 1-330): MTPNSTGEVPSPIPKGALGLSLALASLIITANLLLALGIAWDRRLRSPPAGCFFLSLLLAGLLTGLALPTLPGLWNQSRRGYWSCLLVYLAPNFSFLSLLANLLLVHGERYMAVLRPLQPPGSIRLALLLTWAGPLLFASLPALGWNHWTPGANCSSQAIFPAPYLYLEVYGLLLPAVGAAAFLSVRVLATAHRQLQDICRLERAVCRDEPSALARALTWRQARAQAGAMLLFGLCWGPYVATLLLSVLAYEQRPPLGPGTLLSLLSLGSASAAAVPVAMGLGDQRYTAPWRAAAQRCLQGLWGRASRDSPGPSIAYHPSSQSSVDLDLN
Method in brief: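 EC50 values come from luminescent enzyme-complementation cAMP detection, read after overnight incubation. Beforehand, hTGR5-expressing CHO-K1 cells with IBMX and anti-cAMP antibody were exposed 1 h at room temperature to serially diluted (half-log) compounds.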

[2] = test system: Mouse STC-1 cells; assay: STC-1 GLP-1 assay (GLP-1 secretion); assay type: cell-based; settings: Mouse STC-1 cells, GLP-1 secretion, 2 h; read-out: Mouse STC-1 HTRF GLP-1 Activity (EC50)
Method in brief: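 Secreted active GLP-1 was measured by HTRF after overnight room-temperature incubation of supernatant with the conjugates. Supernatants came from a 2 h, 37° C. compound exposure (12-point half-log series) in HBSS with DPP-IV and protease inhibitors and 0.1% fatty acid free BSA. STC-1 cells had been seeded two days earlier in stripped-serum DMEM; EC50 reported.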

| Compound | EC50 [1] [µM] | EC50 [2] [µM] |
| --- | --- | --- |
| N#Cc1ccc(CCNC(=O)[C@@H]2CCCN2c2cc(N3CCC(CO)CC3)nc(C(F)(F)F)n2)cc1 [Compound 1, (S)—N-(4-cyanophenethyl)-1-(6-(4-(hydroxymethyl)piperidin-1-yl)-2-(trifluoromethyl)pyrimidin-4-yl)pyrrolidine-2-carboxamide] | < 0.1 | 0.1 to 0.999 |
| N#Cc1ccc(CCNC(=O)[C@@H]2CCCN2c2cc(N3CCC(CCCC(=O)NCS(=O)(=O)O)CC3)nc(C(F)(F)F)n2)cc1 [Compound 66, (S)-(4-(1-(6-(2-((4-cyanophenethyl)carbamoyl)pyrrolidin-1-yl)-2-(trifluoromethyl)pyrimidin-4-yl)piperidin-4-yl)butanamido)-methanesulfonic acid] | < 0.1 | < 0.1 |
| N#Cc1ccc(CCNC(=O)[C@@H]2CCCN2c2cc(N3CCC(CCCC(=O)NCC(N)=O)CC3)nc(C(F)(F)F)n2)cc1 [Compound 68, (S)-1-(6-(4-(4-((2-amino-2-oxoethyl)amino)-4-oxobutyl)piperidin-1-yl)-2-(trifluoromethyl)pyrimidin-4-yl)-N-(4-cyanophenethyl)pyrrolidine-2-carboxamide] | < 0.1 | 0.1 to 0.999 |
| N#Cc1ccc(CCNC(=O)[C@@H]2CCCN2c2cc(N3CCC(CCCC(=O)N[C@@H](CCC(=O)O)C(=O)O)CC3)nc(C(F)(F)F)n2)cc1 [Compound 76, (S)-2-(4-(1-(6-((S)-2-((4-cyanophenethyl)carbamoyl)pyrrolidin-1-yl)-2-(trifluoromethyl)pyrimidin-4-yl)piperidin-4-yl)butanamido)-pentanedioic acid] | < 0.1 | 0.1 to 0.999 |
| CS(=O)(=O)NCCNC(=O)CCCC1CCN(c2cc(N3CCC[C@H]3C(=O)NCCc3ccc(C#N)cc3)nc(C(F)(F)F)n2)CC1 [Compound 93] | < 0.1 | < 0.1 |
| N#Cc1ccc(CCNC(=O)[C@@H]2CCCN2c2cc(N3CCC(CCNC(=O)NCCS(N)(=O)=O)CC3)nc(C(F)(F)F)n2)cc1 [Compound 80, (S)-N-(4-cyanophenethyl)-1-(6-(4-(2-(3-(2-sulfamoylethyl)ureido)-ethyl)piperidin-1-yl)-2-(trifluoromethyl)pyrimidin-4-yl)pyrrolidine-2-carboxamide] | < 0.1 | 0.1 to 0.999 |
| O=C(NCCC1CCN(c2cc(N3CCC[C@H]3C(=O)NCCc3ccc(C(F)(F)F)cc3)nc(C(F)(F)F)n2)CC1)NCCS(=O)(=O)O [Compound 86, (S)-2-(3-(2-(1-(2-(trifluoromethyl)-6-(2-((4-(trifluoromethyl)phenethyl)-carbamoyl)pyrrolidin-1-yl)pyrimidin-4-yl)piperidin-4-yl)ethyl)ureido)-ethanesulfonic acid] | < 0.1 | < 0.1 |
| CS(=O)(=O)NCCNC(=O)CCCC1CCN(c2cc(N3CCC[C@H]3C(=O)NCCc3ccc(C(F)(F)F)cc3)nc(C(F)(F)F)n2)CC1 [Compound 91, (S)-1-(6-(4-(4-((2-(methylsulfonamido)ethyl)amino)-4-oxobutyl)piperidin-1-yl)-2-(trifluoromethyl)pyrimidin-4-yl)-N-(4-(trifluoromethyl)phenethyl)pyrrolidine-2-carboxamide] | < 0.1 | < 0.1 |
| N#Cc1ccc(CCNC(=O)[C@@H]2CCCN2c2cc(N3CCC(CCNC(=O)NCCC(=O)O)CC3)nc(C(F)(F)F)n2)cc1 [Compound 81, (S)-3-(3-(2-(1-(6-(2-((4-cyanophenethyl)carbamoyl)pyrrolidin-1-yl)-2-(trifluoromethyl)pyrimidin-4-yl)piperidin-4-yl)ethyl)ureido)-propanoic acid] | < 0.1 | 0.1 to 0.999 |
| N#Cc1ccc(CCNC(=O)[C@@H]2CCCN2c2cc(N3CCC(CCCC(=O)N[C@@H](CCCNC(=N)N)C(=O)O)CC3)nc(C(F)(F)F)n2)cc1 [Compound 72, (S)-2-(4-(1-(6-((S)-2-((4-cyanophenethyl)carbamoyl)pyrrolidin-1-yl)-2-(trifluoromethyl)pyrimidin-4-yl)piperidin-4-yl)butanamido)-5-guanidinopentanoic acid] | < 0.1 | 0.1 to 0.999 |
| N#Cc1ccc(CCNC(=O)[C@@H]2CCCN2c2cc(N3CCC(COCC(=O)O)CC3)nc(C(F)(F)F)n2)cc1 [Compound 88, (S)-2-((1-(6-(2-((4-cyanophenethyl)carbamoyl)pyrrolidin-1-yl)-2-(trifluoromethyl)pyrimidin-4-yl)piperidin-4-yl)methoxy)acetic acid] | 0.1 to 0.999 | 0.1 to 0.999 |
| N#Cc1ccc(CCNC(=O)[C@@H]2CCCN2c2cc(N3CCC(CCNC(=O)NCCS(=O)(=O)O)CC3)nc(C(F)(F)F)n2)cc1 [Compound 78, (S)-2-(3-(2-(1-(6-(2-((4-cyanophenethyl)carbamoyl)pyrrolidin-1-yl)-2-(trifluoromethyl)pyrimidin-4-yl)piperidin-4-yl)ethyl)ureido)ethanesulfonic acid] | < 0.1 | < 0.1 |
| N#Cc1ccc(CCNC(=O)[C@@H]2CCCN2c2cc(N3CCC(CCCC(=O)NCCNc4cc(C(=O)O)ncn4)CC3)nc(C(F)(F)F)n2)cc1 [Compound 101, (S)-6-((2-(4-(1-(6-(2-((4-cyanophenethyl)carbamoyl)pyrrolidin-1-yl)-2-(trifluoromethyl)pyrimidin-4-yl)piperidin-4-yl)butanamido)ethyl)amino)-pyrimidine-4-carboxylic acid] | < 0.1 | < 0.1 |
| N#Cc1ccc(CCNC(=O)[C@@H]2CCCN2c2cc(N3CCC(CCCC(=O)NCP(=O)(O)O)CC3)nc(C(F)(F)F)n2)cc1 [Compound 64, (S)-((4-(1-(6-(2-((4-cyanophenethyl)carbamoyl)pyrrolidin-1-yl)-2-(trifluoromethyl)pyrimidin-4-yl)piperidin-4-yl)butanamido)methyl)-phosphonic acid] | < 0.1 | 0.1 to 0.999 |
| O=C(CCCC1CCN(c2cc(N3CCC[C@H]3C(=O)NCCc3ccc(C(F)(F)F)cc3)nc(C(F)(F)F)n2)CC1)NCCNc1ncnc2c1ncn2[C@@H]1O[C@H](CO)C(O)C1O (stereo partly drawn) [Compound 96, (2S)-1-(6-(4-(4-((2-((9-((2R,5R)-3,4-dihydroxy-5-(hydroxymethyl)-tetrahydrofuran-2-yl)-9H-purin-6-yl)amino)ethyl)amino)-4-oxobutyl)piperidin-1-yl)-2-(trifluoromethyl)-pyrimidin-4-yl)-N-(4-(trifluoromethyl)-phenethyl)-pyrrolidine-2-carboxamide] | < 0.1 | < 0.1 |
